Activity calls are given as the source filed them. The rule behind the calls is not given here.
Tested on: GENE-TOX genotoxicity assays, various organisms and cells
Assay: GENE-TOX mutagenicity studies
Details: for call: Assay Type: In vivo carcinogenicity studies
[1] = Species/Cell Type: Bacillus subtilis (H17 vs M45), Assay Type: Rec-assay, spot test, DNA effects (bacterial DNA repair), Assay Code: REW-, Evaluation Type: Evaluation A (Pre-1980)
[2] = Species/Cell Type: Escherichia coli WP2 UVRA, Assay Type: Tryptophan reverse gene mutation, Assay Code: WPU+D, Dose Response: With dose response, Evaluation Type: Evaluation A (Pre-1980)
[3] = Species/Cell Type: Drosophila melanogaster, Assay Type: Sex-linked recessive lethal gene mutation, Assay Code: SRL+, Evaluation Type: Evaluation A (Pre-1980)
[4] = Species/Cell Type: Mammalian polychromatic erythrocytes, Assay Type: Micronucleus test, chromosome aberrations, Assay Code: MNTT, Evaluation Type: Evaluation A (Pre-1980)
[5] = Species/Cell Type: Mouse, Sex: Male, Assay Type: Sperm morphology, Assay Code: SPI-, Evaluation Type: Evaluation A (Pre-1980)
[6] = Species/Cell Type: Human lymphocytes, Assay Type: Sister-chromatid exchange (SCE) in vitro, Assay Code: SCLT, Evaluation Type: Evaluation B (Post-1980)
[7] = Species/Cell Type: Human, Assay Type: Sister-chromatid exchange (SCE) in vitro, Assay Code: SC1T, Evaluation Type: Evaluation B (Post-1980)
[8] = Species/Cell Type: Drosophila melanogaster, Assay Type: Sex-linked recessive lethal gene mutation, Assay Code: SRLT, Evaluation Type: Evaluation A (Pre-1980)
[9] = Species/Cell Type: Escherichia coli WP2, Assay Type: Tryptophan reverse gene mutation, Assay Code: WP2-, Evaluation Type: Evaluation A (Pre-1980)
[10] = Species/Cell Type: Escherichia coli polA (W3119 vs P3478), Assay Type: Rec-assay, DNA effects (bacterial DNA repair), Assay Code: RE1-, Evaluation Type: Evaluation A (Pre-1980)
[11] = Species/Cell Type: Nonhuman, Assay Code: CCGT, Evaluation Type: Evaluation A (Pre-1980)
[12] = Species/Cell Type: Rodents, Sex: Male, Assay Type: Dominant lethal test, Assay Code: DLT+, Evaluation Type: Evaluation A (Pre-1980)
[13] = Species/Cell Type: Escherichia coli polA (W3119 vs P3478), Assay Type: Rec-assay, DNA effects (bacterial DNA repair), Assay Code: RE1T, Evaluation Type: Evaluation A (Pre-1980)
[14] = Species/Cell Type: Mouse lymphoma (L5178Y) cells, Assay Type: Forward gene mutation at the thymidine kinase (TK) locus, chromosome aberrations, Assay Code: L51+, Evaluation Type: Evaluation A (Pre-1980)
[15] = Species/Cell Type: Salmonella typhimurium (one or more of the five standard strains: TA98, TA100, TA1535, TA1537, and TA1538), Assay Type: Histidine reverse gene mutation, Ames assay, Assay Code: SALT, Evaluation Type: Evaluation A (Pre-1980)
[16] = Species/Cell Type: Salmonella typhimurium (one or more of the five standard strains: TA98, TA100, TA1535, TA1537, and TA1538), Assay Type: Histidine reverse gene mutation, Ames assay, Assay Code: SAL+, Evaluation Type: Evaluation A (Pre-1980)

Cc1ccc2cc3ccc4c(F)cccc4c3cc2c1
mutagenic call (Species/Cell Type: Mouse prostate cells, Assay Type: Cell transformation, Assay Code: CTM+, Evaluation Type: Evaluation A (Pre-1980)): active; positive

COC(=O)COc1ccc(Cl)cc1CSC(=N)N
mutagenic call (Species/Cell Type: Saccharomyces cerevisiae, Assay Type: Reverse gene mutation, Assay Code: YERT, Evaluation Type: Evaluation A (Pre-1980)): no conclusion

OC1C2OC2=C2C=c3ccc4cccc5ccc(c3c54)C2C1O (stereo unspecified)
mutagenic call (Species/Cell Type: Chinese hamster lung (V79) cells, Assay Type: Forward gene mutation at the HPRT or ouabain locus, Assay Code: V79+, Evaluation Type: Evaluation A (Pre-1980)): active; positive

Nc1ncc(/C=C/c2ccc([N+](=O)[O-])o2)nn1
mutagenic call [1]: inactive; negative
mutagenic call (Species/Cell Type: Escherichia coli WP2, Assay Type: Tryptophan reverse gene mutation, Assay Code: WP2+, Evaluation Type: Evaluation A (Pre-1980)): active; positive
mutagenic call [2]: active; positive

O=NN(CCCl)C(=O)NCCNC(=O)N(CCCl)N=O
mutagenic call [3]: active; positive
mutagenic call (Species/Cell Type: Saccharomyces cerevisiae, Assay Type: Mitotic recombination or gene conversion, Assay Code: YEC+, Evaluation Type: Evaluation A (Pre-1980)): active; positive

CC(C)C(O)(C(=O)OCC1=CCN2CC[C@H](O)[C@H]12)[C@H](C)O (stereo partly specified)
mutagenic call [3]: active; positive

CCC1(c2ccccc2)C(=O)NC(=O)NC1=O
mutagenic call (Species/Cell Type: Human lymphocytes, Assay Type: Sister-chromatid exchange (SCE) in vivo, Assay Code: SCY+, Evaluation Type: Evaluation B (Post-1980)): active; positive
mutagenic call (Species/Cell Type: Mammalian polychromatic erythrocytes, Assay Type: Micronucleus test, chromosome aberrations, Assay Code: MNT+, Evaluation Type: Evaluation B (Post-1980)): active; positive
mutagenic call [4]: no conclusion
mutagenic call [5]: inactive; negative
mutagenic call (Species/Cell Type: Syrian hamster embryo (SHE) cells, Assay Type: Cell transformation, clonal assay, Assay Code: CTC-, Evaluation Type: Evaluation A (Pre-1980)): inactive; negative

Cc1c(C)c2c(c(C)c1O)CC[C@@](C)(CCC[C@H](C)CCC[C@H](C)CCCC(C)C)O2
mutagenic call [6]: no conclusion
mutagenic call [7]: no conclusion

CCCCCCCC/C=C/CCCCCCCC(=O)OCCOCC(OCCO)C1OCC(OCCO)C1OCCO (stereo unspecified)
mutagenic call [6]: no conclusion
mutagenic call [7]: no conclusion

CC(=O)C(NC(=O)C(C)C(O)C(C)NC(=O)C(NC(=O)c1nc(C(CC(N)=O)NCC(N)C(N)=O)nc(N)c1C)C(O[C@@H]1O[C@@H](CO)[C@@H](O)[C@H](O)[C@]1(C)O[C@@H]1OC(CO)[C@H](O)[C@](O)(C(N)=O)[C@H]1O)c1cnc[nH]1)C(=O)NCCC1=NC(c2nc(C(N)=O)cs2)CS1 (stereo partly specified)
mutagenic call (Species/Cell Type: Mammalian oocytes or early embryo, Assay Type: Chromosome aberrations in vivo, Assay Code: CYO+, Evaluation Type: Evaluation A (Pre-1980)): active; positive
mutagenic call (Species/Cell Type: Vicia faba, Assay Type: Chromosome aberrations, Assay Code: VIC+D, Dose Response: With dose response, Evaluation Type: Evaluation A (Pre-1980)): active; positive

O=C(N[C@H](CO)[C@H](O)c1ccc([N+](=O)[O-])cc1)C(Cl)Cl
mutagenic call (Species/Cell Type: Arabidopsis species, Assay Type: Gene mutation, Assay Code: ARM-, Evaluation Type: Evaluation A (Pre-1980)): inactive; negative
mutagenic call [1]: inactive; negative
mutagenic call (Species/Cell Type: Bacillus subtilis (H17 vs M45T), Assay Type: Rec-assay, spot test, DNA effects (bacterial DNA repair), Assay Code: REXT, Evaluation Type: Evaluation A (Pre-1980)): no conclusion
mutagenic call [8]: no conclusion
mutagenic call [9]: inactive; negative
mutagenic call (Species/Cell Type: Escherichia coli polA (W3110 vs P3478), Assay Type: Rec-assay, DNA effects (bacterial DNA repair), Assay Code: RE2-, Evaluation Type: Evaluation A (Pre-1980)): inactive; negative
mutagenic call [10]: inactive; negative
call [11]: no conclusion
mutagenic call [12]: active; positive
mutagenic call (Species/Cell Type: Salmonella typhimurium (one or more of the five standard strains: TA98, TA100, TA1535, TA1537, and TA1538), Assay Type: Histidine reverse gene mutation, Ames assay, Assay Code: SAL-, Evaluation Type: Evaluation A (Pre-1980)): inactive; negative

CN(CCCCCC(=O)OC[C@H](N)C(=O)O)N=O
mutagenic call (Species/Cell Type: Escherichia coli polA (W3110 vs P3478), Assay Type: Rec-assay, DNA effects (bacterial DNA repair), Assay Code: RE2T, Evaluation Type: Evaluation A (Pre-1980)): no conclusion
mutagenic call [13]: no conclusion

O=c1c2ccccc2sc2c(CO)ccc(NCCN3CCCCC3)c12
mutagenic call [14]: active; positive

NCCCCNCCCN
mutagenic call [15]: no conclusion

Nc1ncc2[nH]cnc2n1
mutagenic call [8]: no conclusion
mutagenic call (Species/Cell Type: Escherichia coli WP2 UVRA, Assay Type: Tryptophan reverse gene mutation, Assay Code: WPU+, Evaluation Type: Evaluation A (Pre-1980)): active; positive
mutagenic call [14]: active; positive
mutagenic call (Species/Cell Type: Mouse, Sex: Female, Assay Type: Spot test, gene mutation, Assay Code: MST+, Evaluation Type: Evaluation A (Pre-1980)): active; positive
mutagenic call (Species/Cell Type: Neurospora crassa, Assay Type: Forward gene mutation, Assay Code: NEF+, Evaluation Type: Evaluation A (Pre-1980)): active; positive
call [11]: no conclusion
mutagenic call (Species/Cell Type: Saccharomyces cerevisiae, Assay Type: Forward gene mutation, Assay Code: YEF+, Evaluation Type: Evaluation A (Pre-1980)): active; positive

CCN(CC)CCOc1ccc(C(=C(Cl)c2ccccc2)c2ccccc2)cc1
mutagenic call (Species/Cell Type: Human, Sex: Male, Assay Type: Sperm morphology, Assay Code: SPHT, Evaluation Type: Evaluation A (Pre-1980)): no conclusion
mutagenic call (Species/Cell Type: Mammalian polychromatic erythrocytes, Assay Type: Micronucleus test, chromosome aberrations, Assay Code: MNTT, Evaluation Type: Evaluation B (Post-1980)): no conclusion

O[C@H]1[C@@H](O)Cc2c(cc3ccc4cccc5ccc2c3c45)[C@@H]1O
mutagenic call (Species/Cell Type: Chinese hamster lung (V79) cells, Assay Type: Forward gene mutation at the HPRT or ouabain locus, Assay Code: V79-, Evaluation Type: Evaluation A (Pre-1980)): inactive; negative

CCN(CC)CCOC(=O)c1ccc(N)cc1
mutagenic call [13]: no conclusion
mutagenic call [15]: no conclusion

Nc1cnn(-c2ccccc2)c(=O)c1Cl
mutagenic call (Species/Cell Type: Saccharomyces cerevisiae, Assay Type: Mitotic recombination or gene conversion, Assay Code: YEC-, Evaluation Type: Evaluation A (Pre-1980)): inactive; negative

CCN(CC)c1ccc(N=Nc2ccccc2C(=O)O)cc1
mutagenic call [8]: no conclusion

S=C1NCCN1
mutagenic call [9]: inactive; negative
mutagenic call (Species/Cell Type: Escherichia coli WP2 UVRA, Assay Type: Tryptophan reverse gene mutation, Assay Code: WPU-, Evaluation Type: Evaluation A (Pre-1980)): inactive; negative
mutagenic call [4]: no conclusion
mutagenic call [5]: inactive; negative
call (Species/Cell Type: Nonhuman, Assay Code: CCG+, Evaluation Type: Evaluation A (Pre-1980)): active; positive
mutagenic call (Species/Cell Type: Nonhuman, Assay Type: Sister-chromatid exchange (SCE) in vitro, Assay Code: SC2T, Evaluation Type: Evaluation B (Post-1980)): no conclusion
mutagenic call [12]: active; positive
mutagenic call [16]: active; positive
mutagenic call (Species/Cell Type: Salmonella typhimurium, Assay Type: Forward and reverse gene mutation, host-mediated assay, Assay Code: HMA+, Evaluation Type: Evaluation A (Pre-1980)): active; positive
mutagenic call (Species/Cell Type: Syrian hamster embryo (SA7/SHE) cells, Assay Type: Cell transformation, viral enhanced, Assay Code: CT7-, Evaluation Type: Evaluation A (Pre-1980)): inactive; negative
mutagenic call (Species/Cell Type: Tradescantia species, Assay Type: Gene mutation, Assay Code: TRM+D, Dose Response: With dose response, Evaluation Type: Evaluation A (Pre-1980)): active; positive

CCOP(=O)(OCC)SCCSCC (tested in a mixture with another compound)
mutagenic call (Species/Cell Type: Bacillus subtilis (H17 vs M45), Assay Type: Rec-assay, spot test, DNA effects (bacterial DNA repair), Assay Code: REW+, Evaluation Type: Evaluation A (Pre-1980)): active; positive
mutagenic call (Species/Cell Type: Drosophila melanogaster, Assay Type: Sex-linked recessive lethal gene mutation, Assay Code: SRL-, Evaluation Type: Evaluation A (Pre-1980)): inactive; negative
mutagenic call [2]: active; positive
mutagenic call [10]: inactive; negative
mutagenic call (Species/Cell Type: Nonhuman, Assay Type: Sister-chromatid exchange (SCE) in vitro, Assay Code: SC2+D*, Activation: With metabolic activation, Dose Response: With dose response, Evaluation Type: Evaluation B (Post-1980)): active; positive
mutagenic call (Species/Cell Type: Saccharomyces cerevisiae, Assay Type: Mitotic recombination or gene conversion, Assay Code: YEH+, Evaluation Type: Evaluation A (Pre-1980)): active; positive
mutagenic call [16]: active; positive
